Assay results reported in patent publication US4362743A, “Antibacterial monic acid esters” (Beecham Group Limited, priority 1980, dated 1982).
In brackets after ≈: the same amount, converted by molar mass. Like-named read-outs stand apart in the source and are kept apart here.

Legend:
M. suipneumoniae LABER = experiment: Anti-mycoplasmal activity in vitro MIC; format: cell-based; details: Mesomycoplasma hyopneumoniae, 144 h
M. pneumoniae ATCC 15492 = experiment: Anti-mycoplasmal activity in vitro MIC; format: cell-based; details: Mycoplasmoides pneumoniae, ATCC15492, 144 h; M. pneumoniae ATCC 15492; Friis broth, 0.9% agarose, 6 days 37° C.; read-out: M.I.C.
[1] = Serum binding by ultrafiltration; format: in vitro ADME; details: pig, porcine serum, 8 mcg/ml, read-out: % bound to pig serum (converted)
Description: Serum binding was assessed by ultrafiltration of porcine serum containing compounds at 8 mcg/ml, and through an Amicon CF50A ultrafiltration cone. Separation of ultrafiltrate was achieved by centrifugation. Unbound concentrations of compound were measured in the ultrafiltrate by microbiological assay (B. subtilis ATCC 6633) against standards prepared in saline.

M. suipneumoniae MS16 = experiment: Anti-mycoplasmal activity in vitro MIC; format: cell-based; details: Mesomycoplasma hyopneumoniae
M. hyorhinis ATCC 23234 = experiment: Anti-mycoplasmal activity in vitro MIC; format: cell-based; details: Mesomycoplasma hyorhinis, ATCC23234, 144 h
[2] = test system: M. suipneumoniae J2206/183b; experiment: Anti-mycoplasmal activity in vitro MIC; format: cell-based; details: Mesomycoplasma hyopneumoniae, J2206/183B, 144 h
M. bovis NCTC 10131 = experiment: microbe, parasite or virus in culture; format: cell-based; details: NCTC10131, 144 h
[3] = test system: M. suipneumoniae PW/C/210; experiment: Anti-mycoplasmal activity in vitro MIC; format: cell-based; details: Mesomycoplasma hyopneumoniae, 144 h
Ps. aeruginosa 10662 = experiment: Human bacteria MIC; format: cell-based; details: Pseudomonas aeruginosa; Ps. aeruginosa 10662; nutrient agar, 5% chocolated horse blood, 18 hours 37° C.; read-out: M.I.C.
Description: (§1) The values were determined by serial dilutions in nutrient agar with 5% chocolated horse blood after incubations for 18 hours at 37° C.

[4] = test system: Corneybacterium xerosis 9755; experiment: Human bacteria MIC; format: cell-based; details: Corneybacterium xerosis 9755; nutrient agar, 5% chocolated horse blood, 18 hours 37° C.; read-out: M.I.C.
Description: as §1

K. aerogenes A = experiment: Human bacteria MIC; format: cell-based; details: Klebsiella aerogenes; K. aerogenes A; nutrient agar, 5% chocolated horse blood, 18 hours 37° C.; read-out: M.I.C.
Description: as §1

Strep Group B 2788 = experiment: Human bacteria MIC; format: cell-based; details: Strep Group B 2788; nutrient agar, 5% chocolated horse blood, 18 hours 37° C.; read-out: M.I.C.
Description: as §1

[5] = test system: Neisseria catarralis 1502; experiment: Human bacteria MIC; format: cell-based; details: Neisseria catarralis 1502; nutrient agar, 5% chocolated horse blood, 18 hours 37° C.; read-out: M.I.C.
Description: as §1

Staph. aureus Russell = experiment: Human bacteria MIC; format: cell-based; details: Staphylococcus aureus; Staph. aureus Russell; nutrient agar, 5% chocolated horse blood, 18 hours 37° C.; read-out: M.I.C.
Description: as §1

E. Coli NCT 10418 = experiment: Human bacteria MIC; format: cell-based; details: Escherichia coli; E. Coli NCT 10418; nutrient agar, 5% chocolated horse blood, 18 hours 37° C.; read-out: M.I.C.
Description: as §1

Strep. pneumoniae CN33 = experiment: Human bacteria MIC; format: cell-based; details: Streptococcus pneumoniae; Strep. pneumoniae CN33; nutrient agar, 5% chocolated horse blood, 18 hours 37° C.; read-out: M.I.C.
Description: as §1

[6] = test system: Haemophilus influenzae Q1; experiment: Human bacteria MIC; format: cell-based; details: Haemophilus influenzae Q1; nutrient agar, 5% chocolated horse blood, 18 hours 37° C.; read-out: M.I.C.
Description: as §1

E. coli ESS = experiment: Human bacteria MIC; format: cell-based; details: Escherichia coli; E. coli ESS; nutrient agar, 5% chocolated horse blood, 18 hours 37° C.; read-out: M.I.C.
Description: as §1

Strep. faecalis I = experiment: Human bacteria MIC; format: cell-based; details: Enterococcus faecalis, nutrient agar, 5% chocolated horse blood, 18 hours 37° C.
Description: as §1

Bacillus subtilis 6633 = experiment: Human bacteria MIC; format: cell-based; details: Bacillus subtilis 6633; nutrient agar, 5% chocolated horse blood, 18 hours 37° C.; read-out: M.I.C.
Description: as §1

Strep. Group C 64/848 = experiment: Human bacteria MIC; format: cell-based; details: Strep. Group C 64/848; nutrient agar, 5% chocolated horse blood, 18 hours 37° C.; read-out: M.I.C.
Description: as §1

Staph. aureus W2827 = experiment: Human bacteria MIC; format: cell-based; details: Staphylococcus aureus; Staph. aureus W2827; nutrient agar, 5% chocolated horse blood, 18 hours 37° C.; read-out: M.I.C.
Description: as §1

P. mirabilis 889 = experiment: Human bacteria MIC; format: cell-based; details: Proteus mirabilis; P. mirabilis 889; nutrient agar, 5% chocolated horse blood, 18 hours 37° C.; read-out: M.I.C.
Description: as §1

Strep. pyogenes R80/421 = experiment: Human bacteria MIC; format: cell-based; details: Streptococcus pyogenes; Strep. pyogenes R80/421; nutrient agar, 5% chocolated horse blood, 18 hours 37° C.; read-out: M.I.C.
Description: as §1

[7] = test system: Pasteurella multocida 1633; experiment: Human bacteria MIC; format: cell-based; details: Pasteurella multocida 1633; nutrient agar, 5% chocolated horse blood, 18 hours 37° C.; read-out: M.I.C.
Description: as §1

Staph. aureus Oxford = experiment: Human bacteria MIC; format: cell-based; details: Staphylococcus aureus; Staph. aureus Oxford; nutrient agar, 5% chocolated horse blood, 18 hours 37° C.; read-out: M.I.C.
Description: as §1

M. hyorhinis ATCC 25021 = experiment: Anti-mycoplasmal activity in vitro MIC; format: cell-based; details: Mesomycoplasma hyorhinis, ATCC25021, 144 h
[8] = test system: M. bovigenitalium ATCC 14173; experiment: Anti-mycoplasmal activity in vitro MIC; format: cell-based; details: 144 h

| SMILES | MIC (M. pneumoniae ATCC 15492) | fraction unbound [1] | MIC [2] | MIC (M. bovis NCTC 10131) | MIC (Ps. aeruginosa 10662) | MIC [4] | MIC (K. aerogenes A) | MIC (Strep Group B 2788) | MIC [5] | MIC (Staph. aureus Russell) | MIC (E. Coli NCT 10418) | MIC (Strep. pneumoniae CN33) | MIC (E. coli ESS) | MIC (Strep. faecalis I) | MIC (Bacillus subtilis 6633) | MIC (Strep. Group C 64/848) | MIC (Staph. aureus W2827) | MIC (P. mirabilis 889) | MIC (Strep. pyogenes R80/421) | MIC [7] | further results |
| --- | --- | --- | --- | --- | --- | --- | --- | --- | --- | --- | --- | --- | --- | --- | --- | --- | --- | --- | --- | --- | --- |
| C/C(=C\C(=O)OCCCC(=NO)c1cccs1)C[C@@H]1OC[C@H](C[C@@H]2O[C@H]2[C@@H](C)[C@H](C)O)[C@@H](O)[C@H]1O [Example 4, 4-Hydroxyimino-4-(2-thienyl)butyl monate A] | 2.5 µg/mL (≈ 4.89 µM) | < 0.039 | 0.5 µg/mL (≈ 0.977 µM) | 0.025 µg/mL (≈ 0.0489 µM) | > 100 µg/mL | > 100 µg/mL | > 100 µg/mL | 2.5 µg/mL (≈ 4.89 µM) | 0.5 µg/mL (≈ 0.977 µM) | 2.5 µg/mL (≈ 4.89 µM) | > 100 µg/mL | 1 µg/mL (≈ 1.95 µM) | 2.5 µg/mL (≈ 4.89 µM) | 100 µg/mL (≈ 195 µM) | 1 µg/mL (≈ 1.95 µM) | 1 µg/mL (≈ 1.95 µM) | 2.5 µg/mL (≈ 4.89 µM) | > 100 µg/mL | 1 µg/mL (≈ 1.95 µM) | 5 µg/mL (≈ 9.77 µM) | MIC (M. suipneumoniae LABER; M. suipneumoniae LABER, Friis broth, 0.9% agarose, 6 days 37° C., read-out: M.I.C.): 0.25 µg/mL (≈ 0.489 µM); MIC (M. suipneumoniae MS16; 144 h, M. suipneumoniae MS16, Friis broth, 0.9% agarose, 6 days 37° C., read-out: M.I.C.): 0.25 µg/mL (≈ 0.489 µM); MIC (M. hyorhinis ATCC 23234; M. hyorhinis ATCC 23234, Friis broth, 0.9% agarose, 6 days 37° C., read-out: M.I.C.): 0.25 µg/mL (≈ 0.489 µM); MIC ([3]; M. suipneumoniae PW/C/210, Friis broth, 0.9% agarose, 6 days 37° C., read-out: M.I.C.): 0.25 µg/mL (≈ 0.489 µM); MIC [6]: 0.5 µg/mL (≈ 0.977 µM); MIC (Staph. aureus Oxford): 1 µg/mL (≈ 1.95 µM); MIC (M. hyorhinis ATCC 25021; M. hyorhinis ATCC 25021, Friis broth, 0.9% agarose, 6 days 37° C., read-out: M.I.C.): 0.25 µg/mL (≈ 0.489 µM); MIC [8]: 0.05 µg/mL (≈ 0.0977 µM) |
| C/C(=C\C(=O)OCCCC(=NNC(N)=O)c1ccccc1)C[C@@H]1OC[C@H](C[C@@H]2O[C@H]2[C@@H](C)[C@H](C)O)[C@@H](O)[C@H]1O [Example 2, 4-Phenyl-4-semicarbazonobutyl monate A] | 2.5 µg/mL (≈ 4.56 µM) | < 0.159 | 0.5 µg/mL (≈ 0.913 µM) | 0.05 µg/mL (≈ 0.0913 µM) | 100 µg/mL (≈ 183 µM) | > 100 µg/mL | > 100 µg/mL | 2.5 µg/mL (≈ 4.56 µM) | 1 µg/mL (≈ 1.83 µM) | 10 µg/mL (≈ 18.3 µM) | > 100 µg/mL | 1 µg/mL (≈ 1.83 µM) | 5 µg/mL (≈ 9.13 µM) | > 100 µg/mL | 2.5 µg/mL (≈ 4.56 µM) | 5 µg/mL (≈ 9.13 µM) | 10 µg/mL (≈ 18.3 µM) | > 100 µg/mL | 2.5 µg/mL (≈ 4.56 µM) | 10 µg/mL (≈ 18.3 µM) | MIC (M. suipneumoniae LABER): 0.25 µg/mL (≈ 0.456 µM); MIC (M. suipneumoniae MS16; MS16, 144 h): 0.25 µg/mL (≈ 0.456 µM); MIC (M. hyorhinis ATCC 23234): 0.25 µg/mL (≈ 0.456 µM); MIC [3]: 0.25 µg/mL (≈ 0.456 µM); MIC (Staph. aureus Oxford): 5 µg/mL (≈ 9.13 µM); MIC (M. hyorhinis ATCC 25021): 0.25 µg/mL (≈ 0.456 µM); MIC [8]: 0.1 µg/mL (≈ 0.183 µM) |
